Source: a compilation of properties of binary mixtures (doi:10.1016/j.molliq.2016.08.084)

Assay: xn = mol fraction of the nth substance listed
Conditions: 101 kPa

CCCC[n+]1ccn(C)c1.F[B-](F)(F)F + O
viscosity [mPa·s]
Conditions | 293.15 K | 298.15 K | 303.15 K | 313.15 K | 323.15 K | 333.15 K | 343.15 K | 353.15 K | 363.15 K | 373.15 K
x2 = 0 | 133.5 | – | 78.8 | 50.52 | 34.52 | – | 18.69 | 14.54 | 11.64 | –
x2 = 0.034 | – | 88.8 | 69.8 | 45.58 | 31.56 | 22.98 | 17.44 | 13.67 | – | 9.06
x2 = 0.0615 | – | – | – | 41.37 | – | 21.4 | 16.34 | 12.87 | – | –
x2 = 0.1135 | 81.4 | – | 51.7 | – | 25.01 | – | 14.45 | – | 9.39 | 7.83
x2 = 0.2063 | 56.3 | 45.4 | 37.2 | 26.09 | 19.17 | 14.66 | 11.59 | 9.4 | 7.79 | 6.6
x2 = 0.2802 | 42 | 34.4 | 28.7 | 20.59 | 15.49 | 12.06 | 9.64 | 7.91 | – | 5.71
x2 = 0.3977 | – | – | 19 | 14.1 | 10.89 | 8.67 | 7.11 | – | 5.16 | 4.54
